Measurements published in patent US20250276962A1, “CONTRACEPTIVE COMPOUNDS AND METHODS” (Regents of the University of Minnesota, priority 2021, published 2025).
Several values for one entry are separate records, joined by “and”; a condition that tells them apart may be missing. Identical values can stand only once. Like-named read-outs stand apart in the source and are kept apart here.

Experiments:
hERG = hERG (Homo sapiens, UniProt Q12809); assay: in vitro; conditions: human
Procedure: (§1) The potential inhibitory effect on human Ether-á-go-go related gene (hERG) channel was evaluated using a manual patch-clamp system. A HEK293 cell line stably transfected with hERG gene was employed.

[1] = target: human Ether-á-go-go related gene (hERG) channel (Homo sapiens, UniProt Q12809); assay: cell-based
human Ether-á-go-go related gene (hERG) channel, sequence (Q12809 whole entry): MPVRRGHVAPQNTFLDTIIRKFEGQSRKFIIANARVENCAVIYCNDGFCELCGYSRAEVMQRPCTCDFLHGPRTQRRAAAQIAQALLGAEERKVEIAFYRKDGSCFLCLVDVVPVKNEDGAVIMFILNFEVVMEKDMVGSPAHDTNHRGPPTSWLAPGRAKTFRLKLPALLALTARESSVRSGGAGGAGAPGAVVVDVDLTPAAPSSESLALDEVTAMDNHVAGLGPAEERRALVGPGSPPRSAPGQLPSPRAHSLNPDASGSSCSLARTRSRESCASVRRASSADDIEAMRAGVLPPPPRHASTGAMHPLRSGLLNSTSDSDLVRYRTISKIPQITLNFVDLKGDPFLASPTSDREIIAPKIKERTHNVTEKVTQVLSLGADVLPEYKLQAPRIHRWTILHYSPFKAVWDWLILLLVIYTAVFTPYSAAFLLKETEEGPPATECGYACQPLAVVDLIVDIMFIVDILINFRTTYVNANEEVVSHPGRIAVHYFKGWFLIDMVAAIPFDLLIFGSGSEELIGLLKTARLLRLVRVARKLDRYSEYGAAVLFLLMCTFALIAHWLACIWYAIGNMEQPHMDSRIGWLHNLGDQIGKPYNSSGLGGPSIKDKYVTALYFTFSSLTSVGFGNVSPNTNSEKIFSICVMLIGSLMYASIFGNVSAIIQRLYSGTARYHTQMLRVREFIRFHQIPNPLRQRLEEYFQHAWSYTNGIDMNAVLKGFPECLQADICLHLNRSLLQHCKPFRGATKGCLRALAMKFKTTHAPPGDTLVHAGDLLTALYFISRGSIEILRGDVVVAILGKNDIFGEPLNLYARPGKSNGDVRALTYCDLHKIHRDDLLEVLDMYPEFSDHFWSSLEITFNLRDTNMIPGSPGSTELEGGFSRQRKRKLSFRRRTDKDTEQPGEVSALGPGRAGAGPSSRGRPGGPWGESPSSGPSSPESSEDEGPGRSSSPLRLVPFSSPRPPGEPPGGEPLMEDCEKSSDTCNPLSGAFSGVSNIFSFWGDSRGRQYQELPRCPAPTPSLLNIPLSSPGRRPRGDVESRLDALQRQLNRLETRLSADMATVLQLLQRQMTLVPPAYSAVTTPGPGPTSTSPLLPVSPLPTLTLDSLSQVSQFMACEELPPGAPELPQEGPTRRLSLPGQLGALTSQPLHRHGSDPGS
Procedure: as §1

Single dose PK, marmoset = format: in vivo; conditions: male, monkey, plasma, Marmoset 5 mg/kg
Procedure: (§2) NHP studies: Three young adult male marmosets received a single 5 mg/kg dose of the compound of Example land the compound of 3 sexually mature male cynomolgus macaques received a single dose of 0.5, 1, 5 and 10 mg/kg.

in vitro = conditions: mouse hepatocytes
[2] = not given; remark: listed apart in the source
48 potential off-targets = assay: Off-target screening, agonist and antagonist activity against 48 potential off-targets; conditions: 10 uM; against 39 of 48 targets (including glucocorticoid and androgen receptors)
[3] = Stability in monkey liver microsomes; format: in vitro ADME; conditions: read-out: Half-life (T1/2) Liver microsomes (Phase I metabolism) (converted)
cyclooxygenase 2 (COX2) = cyclooxygenase 2 (COX2) (Homo sapiens, UniProt P35354); assay: Off-target screening, COX2; format: biochemical
cyclooxygenase 2 (COX2), sequence (P35354 18-604, species assumed): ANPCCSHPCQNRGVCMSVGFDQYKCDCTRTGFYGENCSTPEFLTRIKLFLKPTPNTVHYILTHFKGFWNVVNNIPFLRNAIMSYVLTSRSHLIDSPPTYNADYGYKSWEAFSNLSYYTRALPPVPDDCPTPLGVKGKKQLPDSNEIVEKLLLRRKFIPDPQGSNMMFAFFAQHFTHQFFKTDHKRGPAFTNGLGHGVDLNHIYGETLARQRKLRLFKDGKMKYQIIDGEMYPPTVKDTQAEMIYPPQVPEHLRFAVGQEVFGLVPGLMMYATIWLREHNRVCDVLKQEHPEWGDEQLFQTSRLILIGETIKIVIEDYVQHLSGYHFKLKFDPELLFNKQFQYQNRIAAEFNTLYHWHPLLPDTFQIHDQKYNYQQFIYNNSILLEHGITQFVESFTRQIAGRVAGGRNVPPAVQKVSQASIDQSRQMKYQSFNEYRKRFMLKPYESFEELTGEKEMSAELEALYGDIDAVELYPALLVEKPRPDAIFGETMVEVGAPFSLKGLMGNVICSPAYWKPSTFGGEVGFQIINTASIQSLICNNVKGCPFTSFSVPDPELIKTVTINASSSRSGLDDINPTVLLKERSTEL

[4] = target: NaV1.5 (cardiac sodium ion channel) (Homo sapiens, UniProt Q14524); assay: Off-target screening, NaV1.5; format: cell-based
NaV1.5 = NaV1.5 (Homo sapiens, UniProt Q14524); assay: Off-target screening, NaV1.5; format: cell-based; conditions: 10 μM
in vivo [5] = conditions: male, Beagle, dog, oral
[6] = target: acetylcholinesterase (AChE) (Homo sapiens, UniProt P22303); assay: Off-target screening, AChE; format: biochemical
acetylcholinesterase (AChE), sequence (P22303 32-614, species assumed): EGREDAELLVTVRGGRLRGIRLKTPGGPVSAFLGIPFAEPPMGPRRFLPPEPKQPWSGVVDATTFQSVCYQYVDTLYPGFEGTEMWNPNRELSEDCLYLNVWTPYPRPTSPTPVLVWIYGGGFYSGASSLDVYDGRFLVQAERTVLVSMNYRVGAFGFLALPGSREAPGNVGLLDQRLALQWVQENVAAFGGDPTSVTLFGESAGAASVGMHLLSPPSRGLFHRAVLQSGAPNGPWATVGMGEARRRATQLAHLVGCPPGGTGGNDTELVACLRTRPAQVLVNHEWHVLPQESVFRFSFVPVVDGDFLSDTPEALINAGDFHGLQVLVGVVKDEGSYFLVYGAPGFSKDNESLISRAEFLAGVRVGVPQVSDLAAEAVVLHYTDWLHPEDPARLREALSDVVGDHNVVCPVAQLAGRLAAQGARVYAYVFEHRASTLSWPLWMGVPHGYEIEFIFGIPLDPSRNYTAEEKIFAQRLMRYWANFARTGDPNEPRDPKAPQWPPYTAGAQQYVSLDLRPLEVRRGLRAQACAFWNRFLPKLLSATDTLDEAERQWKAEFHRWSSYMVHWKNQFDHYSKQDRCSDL

[7] = Stability in rat hepatocytes; format: in vitro ADME; conditions: read-out: Half-life (T1/2) Hepatocytes (Phase I and Phase II metabolism) (converted)
[8] = Single dose PK, cynomolgus macaque; format: in vivo
Procedure: as §2

Single dose PK, mouse = format: in vivo
Excerpt: Single dose pharmacokinetics (PK) studies at therapeutic dose levels: Presented are area under the curve (AUC) values to better compare exposure levels between species.
[…]. […] This value serves as the basis to calculate multiples over efficacy across species.

male cynomolgus macaques [9] = conditions: cynomolgus monkey, in vivo
[10] = target: Kir2.1 (potassium channel of excitable cells) (Homo sapiens, UniProt P63252); assay: Off-target screening, Kir2.1; format: cell-based
Kir2.1 (potassium channel of excitable cells), sequence (P63252 whole entry): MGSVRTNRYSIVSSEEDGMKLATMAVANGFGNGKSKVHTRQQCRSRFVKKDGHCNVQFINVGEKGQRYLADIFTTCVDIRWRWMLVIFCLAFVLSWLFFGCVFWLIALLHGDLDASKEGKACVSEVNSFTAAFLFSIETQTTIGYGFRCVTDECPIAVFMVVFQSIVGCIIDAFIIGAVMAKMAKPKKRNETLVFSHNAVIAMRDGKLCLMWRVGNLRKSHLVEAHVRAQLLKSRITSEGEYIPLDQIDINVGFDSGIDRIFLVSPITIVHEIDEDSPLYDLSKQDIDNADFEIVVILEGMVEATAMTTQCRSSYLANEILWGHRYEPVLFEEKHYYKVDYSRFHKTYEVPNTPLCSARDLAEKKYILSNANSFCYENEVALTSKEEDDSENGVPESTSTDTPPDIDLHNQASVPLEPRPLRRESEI

in vivo [11] = conditions: male, Sprague-Dawley, rat, oral
male cynomolgus macaques [12] = assay: Cynomolgus macaque study with sperm counts per ejaculate as readout; format: in vivo
Procedure: Sperm counts were assessed weekly or bi-weekly in fresh semen samples obtained with electroejaculation. 3 macaques were orally dosed with 2.5 mg/kg, which is the dose equivalent to 10 mg/kg in mouse based on body surface area. […] The animals are now in recovery to assess reversibility (data not shown). […] After dosing for another week at 7.5 mg/kg/day, individual sperm counts were 132, 38 and 12×10^6 showing efficacy in all 3 animals. Since day 38, the animals have been in recovery to assess reversibility. Four weeks after the animals received the last dose, individual sperm counts were 297, 71 and 300×10^6 showing 50% reversibility in animal #1, 65% reversibility in animal #2 and 100% reversibility in animal #3.

[13] = Solubility in PBS at pH 7.4; format: physicochemical
[14] = not given; remark: listed apart in the source
[15] = Distribution assay, plasma levels after oral dosing; conditions: CD-1 mice, 10 mg/kg oral
Procedure: Testes and brain were then harvested. Resulting plasma and tissue were frozen at <−20° C. until analysis by LC/MS/MS.

[16] = Repeat dose PK (14 days), rat; format: in vivo; conditions: male, Sprague-Dawley, plasma, oral, Day 14, read-out: AUC0-48
[17] = Stability in rat liver microsomes; format: in vitro ADME; conditions: read-out: Half-life (T1/2) Liver microsomes (Phase I metabolism)

hERG, sequence (Q12809 whole entry): as the sequence (Q12809 whole entry) above

Question: For `Cc1ccc(C2=CC(C)(C)Oc3ccc(-c4ccc(-c5ccc(C(=O)[O-])cc5)[nH]4)cc32)cc1.[Na+]` [Example 1, Sodium 4-(5-(2,2-dimethyl-4-(p-tolyl)-2H-chromen-6-yl)-1H-pyrrol-2-yl)benzoate], which inhibition at 3.33 µM (hERG; % of hERG inhibition Cell 1, 3.33 μM) is on record?
Answer: 6.99%

Question: What about the inhibition at 10 µM (hERG; % of hERG inhibition Cell 1, 10.00 μM) of the same compound?
Answer: 19.5%

Question: What about the inhibition at 30 µM (hERG; % of hERG inhibition Cell 1, 30.00 μM) of the same compound?
Answer: 35.9%

Question: What about the inhibition at 3.33 µM (hERG; % of hERG inhibition Cell 2, 3.33 μM) of the same compound?
Answer: 16.4%

Question: And the inhibition at 10 µM (hERG; % of hERG inhibition Cell 2, 10.00 μM)?
Answer: 20.2%

Question: What about the inhibition at 30 µM (hERG; % of hERG inhibition Cell 2, 30.00 μM) of the same compound?
Answer: 43.2%

Question: And the inhibition at 3.33 µM (hERG; Average % of hERG inhibition, 3.33 μM)?
Answer: 11.7%

Question: And the inhibition at 10 µM (hERG; Average % of hERG inhibition, 10.00 μM)?
Answer: 19.9%

Question: And the IC50 [1]?
Answer: > 30 µM

Question: And the “hERG inhibitor ranking” value ([1]; human)?
Answer: The compound of Example lis not considered an hERG inhibitor. The IC50 in hERG-

Question: And the IC50 ([1]; read-out: hERG IC50, hERG-transfected HEK293 cells)?
Answer: > 30 µM

Question: What about the IC50 ([1]; read-out: hERG IC50, hERG-transfected HEK293 cells, patch clamp) of the same compound?
Answer: > 30 µM

Question: What about the AUC(0-inf) (Single dose PK, marmoset) of the same compound?
Answer: 6920 ng·h/mL

Question: What about the CLint scaled (in vitro) of the same compound?
Answer: 56.5 mL/min/kg

Question: And the “Half-life (T1/2) Hepatocytes (Phase I and Phase II metabolism)” value (human)?
Answer: 8.7 h

Question: What about the “In vitro Clint (μL/min/10^6 cells)” value (human hepatocytes) of the same compound?
Answer: 2.65 μL/min/10^6 cells

Question: And the “In vitro T1/2” value (human hepatocytes)?
Answer: 8.706 h

Question: And the “Half-life (T1/2) Hepatocytes (Phase I and Phase II metabolism)” value ([2]; mouse)?
Answer: 4.8 h

Question: And the “In vitro Clint (μL/min/10^6 cells)” value ([2]; mouse hepatocytes)?
Answer: 4.79 μL/min/10^6 cells

Question: And the “In vitro T1/2” value ([2]; mouse hepatocytes)?
Answer: 4.826 h

Question: And the “Agonist or antagonist activity against off-targets” value (48 potential off-targets)?
Answer: Example 1 had agonist or antagonist activity of <10% against 39 of them (including

Question: And the Tolerability (male Beagle dogs; dog, in vivo, 50 mg/kg/day)?
Answer: not tolerated

Question: And the Tolerability (male Beagle dogs; dog, in vivo, 100 mg/kg/day)?
Answer: one dog did not show any signs of toxicity

Question: And the Tolerability (male Beagle dogs; dog, in vivo, po, 25 mg/kg/day)?
Answer: tolerated well

Question: And the “Tolerated dose on repeated dosing for 14 days” value (male Beagle dogs; dogs)?
Answer: 25 mg/kg

Question: What about the Tolerability (male Beagle dogs; male, Beagle, dog, in vivo, 100 mg/kg/day, 14 days) of the same compound?
Answer: The other dog lost weight as of Day 12 until termination

Question: And the Safety margin (male Beagle dogs; male, Beagle, dog, in vivo, 14 days)?
Answer: at least 10 ×

Question: And the half-life [3]?
Answer: 23.1 h

Question: What about the IC50 (cyclooxygenase 2 (COX2)) of the same compound?
Answer: 8.51 µM

Question: And the inhibition at 10 µM (cyclooxygenase 2 (COX2); read-out: Inhibition of COX2)?
Answer: 61.8%

Question: And the IC50 [4]?
Answer: 8.8 µM

Question: And the inhibition at 10 µM (NaV1.5)?
Answer: 37.4%

Question: And the MTD at 2 weeks (in vivo [5])?
Answer: 25 mg/kg

Question: And the IC50 [6]?
Answer: > 30 µM

Question: And the inhibition at 10 µM ([6]; 10 μM)?
Answer: 10.2%

Question: What about the half-life [7] of the same compound?
Answer: 7.9 h

Question: What about the AUC(0-inf) ([8]; Cyno 1 mg/kg) of the same compound?
Answer: 33,394 h * ng * mL^−1

Question: And the AUC(0-inf) ([8]; Cyno 5 mg/kg)?
Answer: 175,202 h * ng * mL^−1

Question: What about the AUC(0-inf) ([8]; Cyno 10 mg/kg) of the same compound?
Answer: 293,423 h * ng * mL^−1

Question: What about the AUC(0-inf) ([8]; male, cynomolgus monkey, plasma, Cyno 0.5 mg/kg, read-out: AUC0-inf) of the same compound?
Answer: 23400 ng·h/mL

Question: And the AUC0-inf in plasma (Single dose PK, mouse; male CD-1 mice, single 10 mg/kg dose)?
Answer: 6,681 h*(ng/mL)

Question: What about the AUC(0-inf) (Single dose PK, mouse; male, CD-1, plasma, Mouse 10 mg/kg, single dose) of the same compound?
Answer: 6680 ng·h/mL

Question: What about the AUC(0-t) (Single dose PK, mouse; male, CD-1, plasma, Mouse 10 mg/kg, read-out: AUC0-48) of the same compound?
Answer: 6580 ng·h/mL

Question: And the “Repeat dose observations (behaviour, body weight, CBC, clinical chemistry)” value (male cynomolgus macaques [9])?
Answer: behaved normally and had no substantial changes in body weight, CBC parameters or clinical chemistry parameters

Question: And the IC50 [10]?
Answer: > 10 µM

Question: And the inhibition at 10 µM ([10]; read-out: Inhibition of Kir2.1)?
Answer: 13.2%

Question: What about the MTD at 2 weeks (in vivo [11]) of the same compound?
Answer: 50 mg/kg

Question: And the “Individual sperm counts per ejaculate” value (male cynomolgus macaques [12]; second cohort (initial 598, 203 and 277), 5 mg/kg/day, after 14 days, 5 mg/kg/day)?
Answer: 377 ×10^6 and 62 ×10^6 and 134 ×10^6

Question: What about the “Individual sperm counts per ejaculate” value (male cynomolgus macaques [12]; second cohort, 5 mg/kg/day, after 30 days, 5 mg/kg/day) of the same compound?
Answer: 262 ×10^6 and 28 ×10^6 and 70 ×10^6

Question: What about the “Individual sperm counts per ejaculate” value (male cynomolgus macaques [12]; second cohort, four weeks after the last dose) of the same compound?
Answer: 297 ×10^6 and 71 ×10^6 and 300 ×10^6

Question: What about the “Reversibility of sperm count reduction” value (male cynomolgus macaques [12]; second cohort, four weeks after the last dose, animal #1, #2, #3) of the same compound?
Answer: 50% and 65% and 100%

Question: And the “solubility” value [13]?
Answer: 78.57 µM

Question: What about the “Half-life (T1/2) Liver microsomes (Phase I metabolism)” value ([14]; human) of the same compound?
Answer: 9.5 h

Question: What about the “CLint (μL/min/mg protein)” value ([14]; pooled human liver microsomes) of the same compound?
Answer: 2.43 μL/min/mg protein

Question: What about the “T1/2” value ([14]; pooled human liver microsomes) of the same compound?
Answer: 9.494 h

Question: And the “Plasma level at 48 hours” value [15]?
Answer: 12.9 nM

Question: And the AUC(0-t) ([16]; Rat 25 mg/kg/day)?
Answer: 78800 ng·h/mL

Question: What about the AUC(0-t) ([16]; Rat 50 mg/kg/day) of the same compound?
Answer: 91100 ng·h/mL

Question: What about the half-life [17] of the same compound?
Answer: > 23.1 h
